Data as given in US9910031B2, “Compositions and methods for modulating c-Rel-dependent cytokine production” (Synta Pharmaceuticals Corporation, priority 2003, dated 2018).

What was measured:
IL-12 p40 = IL-12 p40 inhibition after Toxoplasma antigen (STAg) versus IFN-γ/SAC stimulus; type: cell-based; conditions: preliminary results
Method: Compound 2 did, in fact, inhibit p70 but not p40 production in human DCs (no inhibition at up to 10 μM Compound 2). […] Therefore, if Compound 2 is acting through c-Rel, we should not observe potent inhibition of IL-12 p40 following STAg stimulation. […] These two results further confirm that the inhibition of IL-12 production by Compound 2 is via the c-Rel pathway.

p65 = test: Western blot of nuclear p65 in THP-1 cells; type: cell-based, human
Excerpt: (§1) In order to understand this changes, the subcellular localization of NF-κB proteins was investigated using western blot analysis.
(§2) Of the transcription factors that have been analyzed, two factors, ICSBP and c-Rel, seem to be affected by Compound 1/Compound 2 treatment. ICSBP binds indirectly to the Ets-2 site. The primary NFκB trans-activator for IL-12 is the c-Rel/p50 heterodimer. Other dimers (p65/p50 and p50/p50) either lack activity or have inhibitory functions. Thus, c-Rel plays a role in IL-12 transcription as a result of both activation through NFκB and its interaction with ICSBP. […] The membranes were blocked with 5% milk in TBST buffer and then incubated with anti-c-Rel, anti-p65, anti-p50, anti-ICSBP or anti-PU-1 antibody (all the antibodies were purchased from Santa Cruz) at a dilution of 1:500 for 1 h at room temperature or overnight at 4° C. The membranes were washed and incubated with Horseradish Peroxidase-conjugated anti-rabbit IgG or anti-mouse IgG (Amersham, England) at a dilution of 1:2000 at room temperature for 1 h.
(§3) Compound 2 impairs nuclear translocation of c-Rel and p50. We examined the nuclear translocation kinetics of NF-kB family members in LPS stimulated cells treated with Compound 2. THP1 cells were stimulated with LPS in either the presence or absence of 100 nM Compound 2, and the distribution of the NF-κB Rel family members are determined by immunoblotting nuclear (n.p.) extracts collected at 5 min, 15 min, 30 min, 1 h, 3 h and 6 h post-treatment. In response to LPS stimulation, p50 translocated into the nucleus as early as 5 minutes post-stimulation and accumulates as time goes on (FIG. 7, immunoblots and FIG. 8 densitometry). […] The experiment examining p65 nuclear translocation is shown in FIG. 9 (immunoblots) and FIG. 10 (densitometry). In LPS stimulated cells, p65 translocated into the nucleus as early as 5 minutes post-stimulation and accumulated to maximum levels at 15-30 minutes post-stimulation. Treatment of LPS-stimulated cells with Compound 2 had no effect on the kinetics of p65 nuclear entry.
(§4) THP-1 cells were suspended in 20 volumes of buffer A containing 10 mM KCl, 10 mM HEPES (pH 7.9), 1 mM MgCl2, 1 mM dithiothreitol (DTT), 0.1% Nonidet p40 (NP-40), and 0.5 mM phenylmethylsulfonyl fluoride (PMSF) and homogenized and centrifuged at 10,000 rpm at 4 C for 5 min. Nuclear pellets were then suspended in buffer C containing 400 mM NaCl, 20 mM HEPES 9 pH 7.9), 15 mM MgCl2, 0.2 mM EDTA, 1 mM DTT, 25% glycerol, 1 mM PMSF, and 10 ug of leupeptin, 20 ug of pepstatin, and 10 ug/ml antipain, incubated for 30 min at 4 C, and centrifuged at 14,000 rpm for 20 min. The supernatants were dialyzed against buffer D containing 100 mM NaCl, 20 mM HEPES (pH 7.9), 20% glycerol, 1 mM PMSF, and 1 mM DTT. […]

p50 = test: Western blot of nuclear p50 in THP-1 cells; type: cell-based, human
Excerpt: as §1, §2, §3, §4

IL-12 p70 = IL-12 p70 production in human monocyte-derived dendritic cells; type: cell-based; conditions: IFN-γ primed then SAC or LPS
Method: Although c-Rel has a role in the expression of both p35 and p40 in monocytes and macrophages as well as p35 in dendritic cells (DCs), p40 expression in dendritic cells is c-Rel-independent (Grumont et al. J. Exp. Med. 2001; 194:1021-1031). If Compound 2 is acting through c-Rel, this drug should inhibit both p40 and p70 production by PBMCs. However, Compound 2 should inhibit the production of p70 (through inhibition of p35) in DCs, but should not inhibit p40 in DCs. This was tested by generating monocyte-derived dendritic cells according to the following method. Human PBMC at 1×10^7 cells/ml were suspended in serum-free DMEM and incubated for 2 hrs at 37° C. under 5% CO2. The non-adherent cells then were removed by washing with PBS. The adherent cells were cultured in RPMI-1640 medium containing rhIL-4 (100 U/ml) and rhGM-CSF (1000 U/ml) for 6-7 days. The half volume fresh media and full-volume fresh cytokines were added every other day. The cells were then primed with IFN-γ (100 U/ml) and followed by 0.01% SAC or 1 μg/ml LPS, in the presence of different concentrations of Compound 2 or other compounds. The test compounds were prepared in DMSO and the final DMSO concentration was adjusted to 0.25% in all cultures, including the compound-free control. Cell-free supernatants were taken 18 h later for the measurement of cytokines.

[1] = 500 nM, 3 hr, relative to untreated cells
[2] = THP1, IFN-γ plus LPS or IFN-γ plus SAC

Compound: Cc1cccc(C=NNc2cc(N3CCOCC3)nc(OCCc3ccccn3)n2)c1 [Compound 2, N-(3-methyl-benzylidene)-N′-[6-morpholin-4-yl-2-(2-pyridin-2-yl-ethoxy)-pyrimidin-4-yl]-hydrazine]
- IC50 of p40 inhibition with STAg induction relative to IFN-γ/SAC stimulus (IL-12 p40): approximately 1000 times
- amount of p65 in nuclear (p65; [1]): significantly increased
- nuclear p65 protein (FIG. 4) (p65; [2]): increased
- kinetics of p65 nuclear entry (p65; THP1, LPS, 100 nM): no effect
- level of nuclear p65 (p65; THP1, LPS, 100 nM, 6 hours, relative to untreated cells): small increase
- amount of p50 protein in nuclear (p50; [1]): decreased
- nuclear p50 levels (FIG. 4) (p50; [2]): decreased slightly
- kinetics of p50 nuclear entry (p50; THP1, LPS, 100 nM, 5 minutes to 1 hr post-stimulation): no effect
- nuclear p50 protein levels (p50; THP1, LPS, 100 nM, 3 hours): small decrease
- p70 production in human DCs (IL-12 p70): inhibit
